Patent US11000033B2, “Ketone or oxime compound, and herbicide” (NISSAN CHEMICAL CORPORATION, priority 2014, dated 2021)

Key:
Format in all cases: in vivo
Scirpus juncoides = assay: Test Example 2: herbicidal activity, application during weed generation in submerged conditions (symbol B); conditions: Table 23; application herbicide amount 320 g/ha; grade 0-5 by criteria of Test Example 1
How it was run: (§1)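 Read-out: herbicidal effect on each species rated on a visual scale 3 weeks after treatment. Plants were raised together from seed in flooded alluvial soil (4 cm water) at 25° C. to 30° C. and treated at one to two leaves by water-surface application of diluted emulsion.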

Veronica persica = assay: Test Example 5: herbicidal effect by foliage application, plastic box (symbol R); conditions: 320 g/ha, 3 weeks after application
How it was run: (§2)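 Leaf-applied emulsion, water-diluted to a preset herbicide dose, on two-week-old seedlings raised in a 25° C. to 30° C. greenhouse; injury rated at 3 weeks using earlier criteria.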

corn [1] = assay: Test Example 4: effect on crop by soil treatment (symbol c); conditions: for c: corn, effect grade on crop: 320 g/ha; for c: corn, effect on crop grade: application herbicide amount 320 g/ha
From the text: (§3) Herbicidal Effect Test by Soil Treatment
Sterilized diluvial soil was placed in a plastic box having a length of 21 cm, a width of 13 cm, and a depth of 7 cm. Each of the seeds of Digitaria ciliaris, Setaria viridis, Echinochloa crus-galli var. crus-galli, Avena fatua, Alopecurus myosuroides, Lolium multiflorum Lam., Apera spica-venti, Abutilon theophrasti, Amaranthus retroflexus, Chenopodium album, Stellaria media, Galium spurium, Veronica persica, corn, soybean, rice, wheat, beet, and rapeseed was sowed in a spot-like manner and was covered with the soil of a thickness of about 1.5 cm. […] The plastic box was placed in a greenhouse of 25° C. to 30° C. to grow plant.

Alopecurus myosuroides [2] = assay: Test Example 5: herbicidal effect by foliage application, plastic box (symbol J); conditions: 320 g/ha, 3 weeks after application
How it was run: as §2

Avena fatua = assay: Test Example 4: herbicidal effect by soil treatment (symbol I)
From the text: as §3
(§4) Sterilized diluvial soil was placed in a plastic box having a length of 21 cm, a width of 13 cm, and a depth of 7 cm. Each of the seeds of Digitaria ciliaris, Setaria viridis, Echinochloa crus-galli var. crus-galli, Avena fatua, Alopecurus myosuroides, Lolium multiflorum Lam., Apera spica-venti, Abutilon theophrasti, Amaranthus retroflexus, Chenopodium album, Stellaria media, Galium spurium, Veronica persica, corn, soybean, rice, wheat, beet, and rapeseed was sowed in a spot-like manner and was covered with the soil of a thickness of about 1.5 cm. Subsequently, the emulsion agent of the compound present invention prepared in accordance with Formulation Example 2 was diluted with water so as to be a predetermined herbicide amount and the diluted emulsion agent was uniformly applied to the surface of the soil with a small-size spray. The plastic box was placed in a greenhouse of 25° C. to 30° C. to grow plant. 3 weeks later from the herbicide application, the effect to each plant was investigated in accordance with the criteria of Test Example 1.

Amaranthus retroflexus = assay: Test Example 5: herbicidal effect by foliage application, plastic box (symbol N); conditions: 320 g/ha, 3 weeks after application
How it was run: as §2

transplanted rice plant = assay: Test Example 1: effect on crop, application before weed generation in submerged conditions (symbol a); conditions: application herbicide amount 320 g/ha
How it was run: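 Rice at 2.5 leaf stage transplanted into submerged soil (4 cm depth) sown with three weed species; herbicide applied before weed emergence.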

[3] = tested on: Echinochloa oryzacola Vasing.; assay: Test Example 2: herbicidal activity, application during weed generation in submerged conditions (symbol A); conditions: Table 23; application herbicide amount 320 g/ha; grade 0-5 by criteria of Test Example 1
How it was run: as §1

Digitaria ciliaris = assay: Test Example 5: herbicidal effect by foliage application, plastic box (symbol F); conditions: 320 g/ha, 3 weeks after application
How it was run: as §2

Alopecurus myosuroides [4] = assay: Test Example 4: herbicidal effect by soil treatment (symbol J)
From the text: as §3, §4

[5] = tested on: Echinochloa crus-galli var. crus-galli; assay: Test Example 3: herbicidal effect by foliage application, Wagner pot (symbol H); conditions: application herbicide amount 320 g/ha; for H (Echinochloa crus-galli var. crus-galli) herbicidal effect grade: Table 24
How it was run: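 Scoring took place 3 weeks after application, using fixed criteria. Plants had been raised from seed for 14 days at 25 to 30 °C in submerged alluvial soil before a diluted emulsion of the test compound was sprayed uniformly on the leaves.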

Abutilon theophrasti = assay: Test Example 4: herbicidal effect by soil treatment (symbol M)
From the text: as §3, §4

corn [6] = assay: Test Example 5: effect on crop by foliage application, plastic box (symbol c); conditions: 320 g/ha, 3 weeks after application
How it was run: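 Greenhouse culture at 25° C. to 30° C. followed spot-like sowing into sterilized diluvial soil, with seed covered by roughly 1.5 cm of soil.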

[7] = application herbicide amount 320 g/ha

| Compound | Herbicidal effect grade, B: Scirpus juncoides (Scirpus juncoides) | R: Veronica persica, herbicidal effect (criteria 0-5) (Veronica persica) | c: corn, effect grade on crop (corn [1]) | J: Alopecurus myosuroides, herbicidal effect (criteria 0-5) (Alopecurus myosuroides [2]) | I: Avena fatua, herbicidal effect grade (Avena fatua; 320 g/ha) | Effect grade on crop, a: transplanted rice plant (transplanted rice plant) | Herbicidal effect grade, A: Echinochloa oryzacola Vasing. [3] | F: Digitaria ciliaris, herbicidal effect (criteria 0-5) (Digitaria ciliaris) | J: Alopecurus myosuroides, herbicidal effect grade (Alopecurus myosuroides [4]; 320 g/ha) | herbicidal effect on H (Echinochloa crus-galli var. crus-galli), grade 0-5 [5] | M: Abutilon theophrasti, herbicidal effect grade (Abutilon theophrasti; 320 g/ha) | c: corn, effect on crop (criteria 0-5) (corn [6]) | R: Veronica persica, herbicidal effect grade (Veronica persica) | c: corn, effect on crop grade (corn [1]) | J: Alopecurus myosuroides, herbicidal effect grade (Alopecurus myosuroides [2]) | I: Avena fatua, herbicidal effect grade (Avena fatua; [7]) | N: Amaranthus retroflexus, herbicidal effect grade (Amaranthus retroflexus) | a (transplanted rice plant) effect on crop grade (transplanted rice plant) | F: Digitaria ciliaris, herbicidal effect grade (Digitaria ciliaris) | J: Alopecurus myosuroides, herbicidal effect grade (Alopecurus myosuroides [4]; [7]) | other results |
| --- | --- | --- | --- | --- | --- | --- | --- | --- | --- | --- | --- | --- | --- | --- | --- | --- | --- | --- | --- | --- | --- |
| CON=C(CC1CC(O)=C(c2c(C)cc(C)cc2C)C1=O)c1ccc(F)cc1 (centres unmarked) [1-133] | 0 (Herbicidal ratio of 5% or lower (almost no effect)) | 3 (Herbicidal ratio of 40% or higher and lower than 70%) | 0 (Herbicidal ratio of 5% or lower (almost no effect)) | 4 (Herbicidal ratio of 70% or higher and lower than 90%) | 0 (Herbicidal ratio of 5% or lower (almost no effect)) | 1 (Herbicidal ratio of 5% or higher and lower than 20%) | 1 (Herbicidal ratio of 5% or higher and lower than 20%) | 0 (Herbicidal ratio of 5% or lower (almost no effect)) | 5 (Herbicidal ratio of 90% or more (almost completely withered)) | 3 (Herbicidal ratio of 40% or higher and lower than 70%) | 0 (Herbicidal ratio of 5% or lower (almost no effect)) | 0 (Herbicidal ratio of 5% or lower (almost no effect)) |  |  |  |  |  |  |  |  | N: Amaranthus retroflexus, herbicidal effect (criteria 0-5) (Amaranthus retroflexus): 0 (Herbicidal ratio of 5% or lower (almost no effect)) |
| CON=C(CC1CC(OC(=O)N2CCOCC2)=C(c2c(C)cc(C)cc2OC)C1=O)C1CC1 (mixture of isomers) [13-005] | 2 (Herbicidal ratio of 20% or higher and lower than 40%) |  |  |  |  |  | 5 (Herbicidal ratio of 90% or more (almost completely withered)) |  |  |  |  |  | 0 (Herbicidal ratio of 5% or lower (almost no effect)) | 0 (Herbicidal ratio of 5% or lower (almost no effect)) | 5 (Herbicidal ratio of 90% or more (almost completely withered)) | 0 (Herbicidal ratio of 5% or lower (almost no effect)) | 0 (Herbicidal ratio of 5% or lower (almost no effect)) | 5 (Herbicidal ratio of 90% or more (almost completely withered)) | 5 (Herbicidal ratio of 90% or more (almost completely withered)) | 4 (Herbicidal ratio of 70% or higher and lower than 90%) | H (Echinochloa crus-galli var. crus-galli) herbicidal effect grade [5]: 5 (Herbicidal ratio of 90% or more (almost completely withered)); M: Abutilon theophrasti, herbicidal effect grade (Abutilon theophrasti; [7]): 0 (Herbicidal ratio of 5% or lower (almost no effect)); c: corn, effect on crop grade (corn [6]): 4 (Herbicidal ratio of 70% or higher and lower than 90%) |
| CON=C(CC1CC(O)=C(c2c(C)cc(C)cc2OC)C1=O)C1CC1 (mixture of isomers) [13-002] | 5 (Herbicidal ratio of 90% or more (almost completely withered)) |  |  |  |  |  | 5 (Herbicidal ratio of 90% or more (almost completely withered)) |  |  |  |  |  | 4 (Herbicidal ratio of 70% or higher and lower than 90%) | 5 (Herbicidal ratio of 90% or more (almost completely withered)) | 5 (Herbicidal ratio of 90% or more (almost completely withered)) | 4 (Herbicidal ratio of 70% or higher and lower than 90%) | 0 (Herbicidal ratio of 5% or lower (almost no effect)) | 5 (Herbicidal ratio of 90% or more (almost completely withered)) | 5 (Herbicidal ratio of 90% or more (almost completely withered)) | 4 (Herbicidal ratio of 70% or higher and lower than 90%) | H (Echinochloa crus-galli var. crus-galli) herbicidal effect grade [5]: 5 (Herbicidal ratio of 90% or more (almost completely withered)); M: Abutilon theophrasti, herbicidal effect grade (Abutilon theophrasti; [7]): 0 (Herbicidal ratio of 5% or lower (almost no effect)); c: corn, effect on crop grade (corn [6]): 5 (Herbicidal ratio of 90% or more (almost completely withered)) |
| CC(CC1CC(O)=C(c2c(C)cc(C)cc2C)C1=O)=NOCc1ccc(Cl)cc1 (centres unmarked) [1-137] | 4 (Herbicidal ratio of 70% or higher and lower than 90%) | 2 (Herbicidal ratio of 20% or higher and lower than 40%) | 0 (Herbicidal ratio of 5% or lower (almost no effect)) | 5 (Herbicidal ratio of 90% or more (almost completely withered)) | 2 (Herbicidal ratio of 20% or higher and lower than 40%) | 5 (Herbicidal ratio of 90% or more (almost completely withered)) | 4 (Herbicidal ratio of 70% or higher and lower than 90%) | 5 (Herbicidal ratio of 90% or more (almost completely withered)) | 5 (Herbicidal ratio of 90% or more (almost completely withered)) | 5 (Herbicidal ratio of 90% or more (almost completely withered)) | 0 (Herbicidal ratio of 5% or lower (almost no effect)) | 3 (Herbicidal ratio of 40% or higher and lower than 70%) |  |  |  |  |  |  |  |  |  |
| CC(CC1CC(O)=C(c2c(C)cc(C)cc2C)C1=O)=NOCc1ccc(F)cc1 (centres unmarked) [1-136] | 4 (Herbicidal ratio of 70% or higher and lower than 90%) | 2 (Herbicidal ratio of 20% or higher and lower than 40%) | 0 (Herbicidal ratio of 5% or lower (almost no effect)) | 5 (Herbicidal ratio of 90% or more (almost completely withered)) | 3 (Herbicidal ratio of 40% or higher and lower than 70%) | 5 (Herbicidal ratio of 90% or more (almost completely withered)) | 4 (Herbicidal ratio of 70% or higher and lower than 90%) | 5 (Herbicidal ratio of 90% or more (almost completely withered)) | 5 (Herbicidal ratio of 90% or more (almost completely withered)) | 5 (Herbicidal ratio of 90% or more (almost completely withered)) |  | 3 (Herbicidal ratio of 40% or higher and lower than 70%) |  |  |  |  |  |  |  |  |  |
